Test results: patent US20120319032A1, “Biodegradable, Frost Proof Heat-Transfer Fluid, Use Thereof In Near-Surface Geothermal Installations, And A Concentrate For Preparing Same” (priority 2010, published 2012)
Like-named read-outs stand apart in the source and are kept apart here.

How the values were obtained:
[1] = shown in studies (Geothermics 36 (2007) 348 - 361); cited from earlier work
[2] = Biodegradability, test method OECD 301 B; conditions: in-house measurement
Protocol: The biodegradability of the inventive composition and constituents thereof is determined according to the OECD Guidelines for Testing of Chemicals 301 and 311.
The corrosion inhibitor or, if more than one corrosion inhibitor is used, all corrosion inhibitors used have good biodegradability (are “readily degradable”) according to the respectively applicable test method OECD 301 A (for water-soluble corrosion inhibitors) or OECD 301 B (for sparingly water-soluble corrosion inhibitors), each in the version dated Jul. 17, 1992. Good biodegradability is defined in point 10 of OECD 301.

[3] = 301D; 28 d; Research report 200 24 233 UBA-FB 000298; cited from earlier work
[4] = 302B; 28 d; Research report 200 24 233 UBA-FB 000298; cited from earlier work
[5] = OECD 301A, manufacturer safety data sheet, cited from earlier work
[6] = OECD 301B, manufacturer safety data sheet, cited from earlier work

For OCCO [ethylene glycol], the Biodegradability [1] is given as “good”.
For O=C(O)CCCCCCCCC(=O)O [Inhibitor C, sebacic acid], the Degradability ([2]; 25 d) was >80% (25 d) and the Assessment of degradability [2] was “good”.
In the case of c1ccc2[nH]nnc2c1 [Benzotriazole], the Degradability [3] is listed as 0% (28 d) and the Degradability [4] is listed as 12% (28 d).
For CC(O)CO (centres unmarked) [1,2-propylene glycol], the Biodegradability [1] is given as “good”, the Degradability ([5]; duration not given) is given as over 70% and the Assessment of degradability [5] is given as “good”.
In the case of CC(C)CCCCCC(=O)O [Inhibitor A, isononanoic acid], the Degradability ([6]; 25 d) is given as “approx. 63%” and the Assessment of degradability [6] is given as “moderately”.
In the case of CC(C)CCCCCC(=O)NCCCCCC(=O)O [Inhibitor X], the Degradability ([6]; 15 d) is given as >90% (15 d) and the Assessment of degradability [6] is given as “good”.
For CCCCC(CC)C(=O)O (centres unmarked) [Inhibitor B, 2-ethylhexanoic acid], the Degradability ([6]; 25 d) is given as “approx. 90%” and the Assessment of degradability [6] is given as “good”.
